The record followed here is ChEMBL document CHEMBL1641529, “Novel 9a,11-bridged azalides: One-pot synthesis of N'-substituted 2-imino-1,3-oxazolidines condensed to an azalide aglycone” (2011).

The subject of one assay is Streptococcus pyogenes. The experiment in a line: Antimicrobial activity against Streptococcus pyogenes after 24 hrs by microdilution method. It counts as functional. A general note: In broth dilution the organism is exposed to a series of concentrations in liquid medium.
A further assay concerns Saccharomyces cerevisiae. The experiment in a line: Toxicity in Saccharomyces cerevisiae after 24 hrs by microdilution method. It counts as functional, organism-based.
For a further assay, the system named is Moraxella catarrhalis. The experiment in a line: Antimicrobial activity against Moraxella catarrhalis after 24 hrs by microdilution method. It counts as functional.
Another assay deals with Haemophilus influenzae. The experiment in a line: Antimicrobial activity against Haemophilus influenzae after 24 hrs by microdilution method. It counts as functional.
The test system of the next assay is Staphylococcus aureus. The experiment in a line: Antimicrobial activity against Staphylococcus aureus after 24 hrs by microdilution method. The class given is functional.
A further assay deals with Streptococcus pneumoniae. The experiment in a line: Antimicrobial activity against Streptococcus pneumoniae after 24 hrs by microdilution method. It counts as functional.

≈ marks a conversion by molar mass, not a printed value. A value given as a limit tells only on which side of the number the result lay.

With `CC[C@H]1OC(=O)[C@H](C)[C@@H](O[C@@H]2C[C@@](C)(OC)[C@@H](O)[C@H](C)O2)[C@H](C)[C@@H](O[C@@H]2O[C@H](C)C[C@H](N(C)C)[C@H]2O)[C@](C)(O)C[C@@H](C)CN2/C(=N\C(C)C)O[C@H]([C@H]2C)[C@]1(C)O`, the MIC is 2 µg/mL (≈ 2.49 µM) with Streptococcus pyogenes; 16 µg/mL (≈ 19.9 µM) in the assay on Moraxella catarrhalis; above 64 µg/mL against Haemophilus influenzae; 16 µg/mL (≈ 19.9 µM) in the assay on Staphylococcus aureus; 2 µg/mL (≈ 2.49 µM) with Streptococcus pneumoniae. Moreover, the Activity result in the assay with Saccharomyces cerevisiae was “Not toxic”.

Take `CC[C@H]1OC(=O)[C@H](C)[C@@H](O[C@@H]2C[C@@](C)(OC)[C@@H](O)[C@H](C)O2)[C@H](C)[C@@H](O[C@@H]2O[C@H](C)C[C@H](N(C)C)[C@H]2O)[C@](C)(OC)C[C@@H](C)CN2/C(=N\C(C)C)O[C@H]([C@H]2C)[C@]1(C)O`: the MIC turned out to be 1 µg/mL (≈ 1.23 µM) with Streptococcus pyogenes; 2 µg/mL (≈ 2.45 µM) against Moraxella catarrhalis; 64 µg/mL (≈ 78.4 µM) in the assay with Haemophilus influenzae; 16 µg/mL (≈ 19.6 µM) against Staphylococcus aureus; 0.5 µg/mL (≈ 0.613 µM) against Streptococcus pneumoniae. Besides, the Activity result with Saccharomyces cerevisiae was “Not toxic”.

In the case of `CC[C@H]1OC(=O)[C@H](C)[C@@]2(O)O[C@@](C)(C[C@@H](C)CN3/C(=N\C(C)C)O[C@H]([C@H]3C)[C@]1(C)O)[C@H](O[C@@H]1O[C@H](C)C[C@H](N(C)C)[C@H]1O)[C@H]2C`, the MIC was 32 µg/mL (≈ 49.9 µM) with Streptococcus pyogenes; 32 µg/mL (≈ 49.9 µM) against Moraxella catarrhalis; above 64 µg/mL in the assay on Haemophilus influenzae; above 64 µg/mL with Staphylococcus aureus; 16 µg/mL (≈ 24.9 µM) in the assay on Streptococcus pneumoniae. For the same molecule, the Activity result with Saccharomyces cerevisiae is “Not toxic”.

Consider `CC[C@H]1OC(=O)[C@H](C)[C@@H](O[C@@H]2C[C@@](C)(OC)[C@@H](O)[C@H](C)O2)[C@H](C)[C@@H](O[C@@H]2O[C@H](C)C[C@H](N(C)C)[C@H]2O)[C@](C)(OC)C[C@@H](C)CN2/C(=N\Cc3ccccc3)O[C@H]([C@H]2C)[C@]1(C)O`, for which the MIC was below 0.125 µg/mL in the assay on Streptococcus pyogenes; 2 µg/mL (≈ 2.31 µM) against Moraxella catarrhalis; 16 µg/mL (≈ 18.5 µM) in the assay with Haemophilus influenzae; 2 µg/mL (≈ 2.31 µM) in the assay on Staphylococcus aureus; below 0.125 µg/mL against Streptococcus pneumoniae. The Activity entry with Saccharomyces cerevisiae is “Not toxic”.

For `CC[C@H]1OC(=O)[C@H](C)C(=O)[C@H](C)[C@@H](O[C@@H]2O[C@H](C)C[C@H](N(C)C)[C@H]2O)[C@](C)(OC)C[C@@H](C)CN2/C(=N\Cc3ccccc3)O[C@H]([C@H]2C)[C@]1(C)O`, the MIC with Streptococcus pyogenes is 8 µg/mL (≈ 11.4 µM); against Moraxella catarrhalis, 8 µg/mL (≈ 11.4 µM); in the assay with Haemophilus influenzae, above 64 µg/mL; against Staphylococcus aureus it was above 64 µg/mL; with Streptococcus pneumoniae it was 2 µg/mL (≈ 2.84 µM). In addition, in the assay on Saccharomyces cerevisiae, the Activity entry is “Not toxic”.

For the molecule `CC[C@H]1OC(=O)[C@H](C)[C@@H](O)[C@H](C)[C@@H](O[C@@H]2O[C@H](C)C[C@H](N(C)C)[C@H]2O)[C@](C)(O)C[C@@H](C)CN2/C(=N\c3cccc4ccccc34)O[C@H]([C@H]2C)[C@]1(C)O`, the MIC was above 64 µg/mL in the assay with Streptococcus pyogenes; 64 µg/mL (≈ 87.9 µM) in the assay with Moraxella catarrhalis; above 64 µg/mL in the assay on Haemophilus influenzae; above 64 µg/mL in the assay with Staphylococcus aureus; above 64 µg/mL in the assay with Streptococcus pneumoniae. The Activity result with Saccharomyces cerevisiae is “Not toxic”.

Take `CC[C@H]1OC(=O)[C@H](C)[C@@H](O[C@@H]2C[C@@](C)(OC)[C@@H](O)[C@H](C)O2)[C@H](C)[C@@H](O[C@@H]2O[C@H](C)C[C@H](N(C)C)[C@H]2O)[C@](C)(O)C[C@@H](C)CN2/C(=N\c3cccc4ccccc34)O[C@H]([C@H]2C)[C@]1(C)O`: the MIC with Streptococcus pyogenes was 0.25 µg/mL (≈ 0.282 µM); against Moraxella catarrhalis it was 4 µg/mL (≈ 4.51 µM); with Haemophilus influenzae it was 8 µg/mL (≈ 9.03 µM); with Staphylococcus aureus, 8 µg/mL (≈ 9.03 µM); in the assay on Streptococcus pneumoniae, below 0.125 µg/mL. Also, in the assay on Saccharomyces cerevisiae, the Activity result is “Not toxic”.

With `CC[C@H]1OC(=O)[C@H](C)[C@@H](O[C@@H]2C[C@@](C)(OC)[C@@H](O)[C@H](C)O2)[C@H](C)[C@@H](O[C@@H]2O[C@H](C)C[C@H](N(C)C)[C@H]2O)[C@](C)(O)C[C@@H](C)CN2/C(=N\Cc3ccccc3)O[C@H]([C@H]2C)[C@]1(C)O`, the MIC in the assay on Streptococcus pyogenes was below 0.125 µg/mL; in the assay with Moraxella catarrhalis, 2 µg/mL (≈ 2.35 µM); in the assay on Haemophilus influenzae, 16 µg/mL (≈ 18.8 µM); in the assay on Staphylococcus aureus, 2 µg/mL (≈ 2.35 µM); with Streptococcus pneumoniae, below 0.125 µg/mL. For the same molecule, the Activity entry in the assay with Saccharomyces cerevisiae is “Not toxic”.

Regarding `CC[C@H]1OC(=O)[C@H](C)[C@@H](O)[C@H](C)[C@@H](O[C@@H]2O[C@H](C)C[C@H](N(C)C)[C@H]2O)[C@](C)(O)C[C@@H](C)CN2/C(=N\C(C)C)O[C@H]([C@H]2C)[C@]1(C)O`, the MIC is 8 µg/mL (≈ 12.4 µM) against Streptococcus pyogenes; above 64 µg/mL with Moraxella catarrhalis; above 64 µg/mL against Haemophilus influenzae; above 64 µg/mL in the assay on Staphylococcus aureus; 4 µg/mL (≈ 6.21 µM) with Streptococcus pneumoniae. Moreover, the Activity result in the assay with Saccharomyces cerevisiae is “Not toxic”.

Consider `CC[C@H]1OC(=O)[C@H](C)[C@@H](O)[C@H](C)[C@@H](O[C@@H]2O[C@H](C)C[C@H](N(C)C)[C@H]2O)[C@](C)(O)C[C@@H](C)CN2/C(=N\Cc3ccccc3)O[C@H]([C@H]2C)[C@]1(C)O`, for which the MIC with Streptococcus pyogenes was 8 µg/mL (≈ 11.6 µM); in the assay on Moraxella catarrhalis, 64 µg/mL (≈ 92.5 µM); against Haemophilus influenzae, above 64 µg/mL; with Staphylococcus aureus, 64 µg/mL (≈ 92.5 µM); against Streptococcus pneumoniae, 8 µg/mL (≈ 11.6 µM). The Activity result with Saccharomyces cerevisiae is “Not toxic”.

Regarding `CC[C@H]1OC(=O)[C@H](C)[C@@H](O[C@@H]2C[C@@](C)(OC)[C@@H](O)[C@H](C)O2)[C@H](C)[C@@H](O[C@@H]2O[C@H](C)C[C@H](N(C)C)[C@H]2O)[C@](C)(OC)C[C@@H](C)CN2/C(=N\c3cccc4ccccc34)O[C@H]([C@H]2C)[C@]1(C)O`, the MIC with Streptococcus pyogenes was determined as 1 µg/mL (≈ 1.11 µM); in the assay with Moraxella catarrhalis, 8 µg/mL (≈ 8.89 µM); with Haemophilus influenzae, 32 µg/mL (≈ 35.5 µM); in the assay with Staphylococcus aureus it was 16 µg/mL (≈ 17.8 µM); in the assay on Streptococcus pneumoniae, 0.5 µg/mL (≈ 0.555 µM). The Activity entry in the assay on Saccharomyces cerevisiae is “Not toxic”.

As to `CC[C@H]1OC(=O)[C@H](C)[C@@H](O[C@@H]2C[C@@](C)(OC)[C@@H](O)[C@H](C)O2)[C@H](C)[C@@H](O[C@@H]2O[C@H](C)C[C@H](N(C)C)[C@H]2O)[C@](C)(O)C[C@@H](C)CN2/C(=N\c3ccc(-c4ccccc4)cc3OC)O[C@H]([C@H]2C)[C@]1(C)O`, the MIC with Streptococcus pyogenes is below 0.125 µg/mL; against Moraxella catarrhalis it was 8 µg/mL (≈ 8.49 µM); with Haemophilus influenzae, 8 µg/mL (≈ 8.49 µM); with Staphylococcus aureus it was 2 µg/mL (≈ 2.12 µM); in the assay with Streptococcus pneumoniae it was below 0.125 µg/mL. Further, the Activity result in the assay on Saccharomyces cerevisiae was “Not toxic”.

As for `CC[C@H]1OC(=O)[C@H](C)[C@@H](O)[C@H](C)[C@@H](O[C@@H]2O[C@H](C)C[C@H](N(C)C)[C@H]2O)[C@](C)(OC)C[C@@H](C)CN2/C(=N\c3cccc4ccccc34)O[C@H]([C@H]2C)[C@]1(C)O`, the MIC against Streptococcus pyogenes was above 64 µg/mL; with Moraxella catarrhalis, 16 µg/mL (≈ 21.6 µM); in the assay with Haemophilus influenzae, above 64 µg/mL; against Staphylococcus aureus it was above 64 µg/mL; against Streptococcus pneumoniae, 64 µg/mL (≈ 86.3 µM). For the same molecule, the Activity result in the assay on Saccharomyces cerevisiae is “Not toxic”.

As for `CC[C@H]1OC(=O)[C@H](C)C(=O)[C@H](C)[C@@H](O[C@@H]2O[C@H](C)C[C@H](N(C)C)[C@H]2O)[C@](C)(OC)C[C@@H](C)CN2/C(=N\C(C)C)O[C@H]([C@H]2C)[C@]1(C)O`, the MIC in the assay with Streptococcus pyogenes was above 64 µg/mL; against Moraxella catarrhalis, 16 µg/mL (≈ 24.4 µM); in the assay with Haemophilus influenzae it was above 64 µg/mL; with Staphylococcus aureus, above 64 µg/mL; against Streptococcus pneumoniae it was 16 µg/mL (≈ 24.4 µM). For the same molecule, the Activity entry with Saccharomyces cerevisiae was “Not toxic”.

Regarding `CC[C@H]1OC(=O)[C@H](C)[C@@]2(O)O[C@@](C)(C[C@@H](C)CN3/C(=N\Cc4ccccc4)O[C@H]([C@H]3C)[C@]1(C)O)[C@H](O[C@@H]1O[C@H](C)C[C@H](N(C)C)[C@H]1O)[C@H]2C`, the MIC with Streptococcus pyogenes was 32 µg/mL (≈ 46.4 µM); against Moraxella catarrhalis, 32 µg/mL (≈ 46.4 µM); with Haemophilus influenzae, above 64 µg/mL; in the assay with Staphylococcus aureus, above 64 µg/mL; in the assay on Streptococcus pneumoniae, 32 µg/mL (≈ 46.4 µM). The Activity result with Saccharomyces cerevisiae is “Not toxic”.

Take `CC[C@H]1OC(=O)[C@H](C)[C@@H](O)[C@H](C)[C@@H](O[C@@H]2O[C@H](C)C[C@H](N(C)C)[C@H]2O)[C@](C)(OC)C[C@@H](C)CN2/C(=N\Cc3ccccc3)O[C@H]([C@H]2C)[C@]1(C)O`: the MIC against Streptococcus pyogenes was 16 µg/mL (≈ 22.7 µM); with Moraxella catarrhalis, above 64 µg/mL; against Haemophilus influenzae, above 64 µg/mL; with Staphylococcus aureus, above 64 µg/mL; against Streptococcus pneumoniae, 32 µg/mL (≈ 45.3 µM). Besides, the Activity result in the assay on Saccharomyces cerevisiae is “Not toxic”.

Regarding `CC[C@H]1OC(=O)[C@H](C)[C@@H](O)[C@H](C)[C@@H](O[C@@H]2O[C@H](C)C[C@H](N(C)C)[C@H]2O)[C@](C)(O)C[C@@H](C)CN2/C(=N\c3ccc(-c4ccccc4)cc3OC)O[C@H]([C@H]2C)[C@]1(C)O`, the MIC was above 64 µg/mL against Streptococcus pyogenes; 32 µg/mL (≈ 40.8 µM) against Moraxella catarrhalis; above 64 µg/mL in the assay on Haemophilus influenzae; above 64 µg/mL in the assay on Staphylococcus aureus; above 64 µg/mL in the assay on Streptococcus pneumoniae. Besides, the Activity entry in the assay on Saccharomyces cerevisiae is “Not toxic”.
